Several values for one entry are separate records, joined by “and”; a condition that tells them apart may be missing. Identical values can stand only once. Like-named read-outs stand apart in the source and are kept apart here.
Columns and labels:
p38α [1] = target: T1, p38α (Homo sapiens, UniProt Q16539); test: ADP-Glo Kinase Assay, p38α MAP kinase inhibition; assay type: biochemical; conditions: read-out: p38α MAP kinase inhibitory activity IC50
Experimental: The capacity of brominated tyrosine derivatives to inhibit p38α activity was evaluated using the ADP-Glo Kinase Assay.

PC9 cells = test: MTT anti-proliferation assay, PC9 cells; assay type: cell-based, human; conditions: for MTT, PC9, value relative to control (=100), single replicate: 24 h
Experimental: (§1) To evaluate the tumor-selective activity of compounds 4l and 4m, dose–response studies were performed on wild-type PC9 and gefitinib-resistant PC9/GR cell lines. […] Subtoxic concentrations of 25, 50, and 75 μM were employed to ensure specificity for drug-resistant phenotypes while preserving normal cell viability. […] To assess long-term proliferative potential, clonogenic survival assays were performed. Cells pretreated with 4l (24 h) were trypsinized to generate single-cell suspensions, plated at 300 cells/well, and cultured for 14 days. […] Cell migration ability was evaluated by the scratch healing assay. […] To evaluate the pro-apoptotic efficacy of 4l, we employed a dual-staining approach using Annexin V-FITC and propidium iodide (PI) for quadrant-specific quantification of programmed cell death. Annexin V binds externalized phosphatidylserine (PS), a hallmark of early apoptosis, while PI permeabilization discriminates late-stage apoptotic or necrotic cells.
(§2) The human normal lung epithelial cell line BEAS-2B, non-small cell lung carcinoma (NSCLC) cell line PC9, and gefitinib-resistant PC9/GR cell line were purchased from Procell Life Science & Technology Co., Ltd. (Wuhan, China). All cell lines were maintained in RPMI-1640 medium (BI, Beit Haemek, Mateh Asher, Israel) supplemented with 10% fetal bovine serum (FBS, Gibco, Thermo Fisher Scientific, Waltham, MA, USA) and 1% penicillin–streptomycin–amphotericin B sterile solution (Solarbio, Beijing, China). Cells were cultured at 37 °C in a humidified incubator with 5% CO2. For subculturing, cells were harvested using trypsin-EDTA solution upon reaching 70–80% confluence and resuspended at appropriate densities for subsequent experiments.
(§3) MTT: Cells (5 × 10^4/mL) were treated with 4l (25–100 μM, 24–48 h), incubated with MTT (10 μL/well, 4–6 h), and dissolved in DMSO. Absorbance (490 nm) was measured to assess viability.

PC9/GR cells = test: MTT anti-proliferation assay, gefitinib-resistant PC9/GR cells; assay type: cell-based, human; conditions: for MTT, PC9/GR, value relative to control (=100), single replicate: 24 h
Experimental: as §1, §2, §3

p38α [2] = target: T1, p38α; set-up: method as in PMID 30642059; conditions: compounds 6a–6o synthesized in previous work; read-out: p38α MAP kinase inhibitory activity IC50; cited from earlier work

T1 sequence (Q16539 whole entry): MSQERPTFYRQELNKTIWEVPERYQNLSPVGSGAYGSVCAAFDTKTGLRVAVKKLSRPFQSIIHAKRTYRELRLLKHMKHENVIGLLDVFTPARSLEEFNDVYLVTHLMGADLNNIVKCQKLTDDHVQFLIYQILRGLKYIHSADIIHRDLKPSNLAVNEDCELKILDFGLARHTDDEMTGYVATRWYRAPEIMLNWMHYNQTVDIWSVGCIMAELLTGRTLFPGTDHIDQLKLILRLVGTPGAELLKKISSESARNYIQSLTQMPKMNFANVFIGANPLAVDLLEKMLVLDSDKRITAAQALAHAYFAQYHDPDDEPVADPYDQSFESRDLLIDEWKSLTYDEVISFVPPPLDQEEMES

Row | SMILES | IC50 (p38α [1]) | also measured
1 | COc1ccc(NC(=O)NCCc2cc(Br)c(O)c(Br)c2)cc1 [4a, 1-(3,5-dibromo-4-hydroxyphenethyl)-3-(4-methoxyphenyl)urea] | 265 ± 20.7 nM | –
2 | CCOc1ccc(NC(=O)NCCc2cc(Br)c(O)c(Br)c2)cc1 [4b, 1-(3,5-dibromo-4-hydroxyphenethyl)-3-(4-ethoxyphenyl)urea] | 170 ± 12.1 nM | –
3 | CCCOc1ccc(NC(=O)NCCc2cc(Br)c(O)c(Br)c2)cc1 [4c, 1-(3,5-dibromo-4-hydroxyphenethyl)-3-(4-propoxyphenyl)urea] | 297 ± 17.5 nM | –
4 | CCCCOc1ccc(NC(=O)NCCc2cc(Br)c(O)c(Br)c2)cc1 [4d, 1-(4-butoxyphenyl)-3-(3,5-dibromo-4-hydroxyphenethyl)urea] | 914 ± 44.3 nM | –
5 | O=C(NCCc1cc(Br)c(O)c(Br)c1)Nc1ccc(OCCCN2CCOCC2)cc1 [4g, 1-(3,5-dibromo-4-hydroxyphenethyl)-3-(4-(3-morpholinopropoxy)phenyl)urea] | 167 ± 13.6 nM | –
6 | CC(C)Oc1ccc(NC(=O)NCCc2cc(Br)c(O)c(Br)c2)cc1 [4h, 1-(3,5-dibromo-4-hydroxyphenethyl)-3-(4-isopropoxyphenyl)urea] | 850 ± 32.7 nM | –
7 | O=C(NCCc1cc(Br)c(O)c(Br)c1)Nc1cccc(Cl)c1 [4i, 1-(3-chlorophenyl)-3-(3,5-dibromo-4-hydroxyphenethyl)urea] | 13.9 ± 2.7 nM | –
8 | O=C(NCCc1cc(Br)c(O)c(Br)c1)Nc1ccccc1Cl [4j, 1-(2-chlorophenyl)-3-(3,5-dibromo-4-hydroxyphenethyl)urea] | 74.4 ± 13 nM | –
9 | O=C(NCCc1cc(Br)c(O)c(Br)c1)Nc1ccc(Br)cc1 [4k, 1-(4-bromophenyl)-3-(3,5-dibromo-4-hydroxyphenethyl)urea] | 51.1 ± 9.5 nM | –
10 | O=C(NCCc1cc(Br)c(O)c(Br)c1)Nc1ccccc1F [4m, 1-(3,5-dibromo-4-hydroxyphenethyl)-3-(2-fluorophenyl)urea] | 10.2 ± 2.3 nM | MTT, PC9, value relative to control (=100), single replicate (PC9 cells; 25 (μM)): 72.71 and 78.44 and 89.41 and 73.662; MTT, PC9, value relative to control (=100), single replicate (PC9 cells; 50 (μM)): 73.32 and 75.35 and 64.23 and 80.16; MTT, PC9, value relative to control (=100), single replicate (PC9 cells; 75 (μM)): 63.32 and 73.36 and 69.44 and 65.21; MTT, PC9, value relative to control (=100), single replicate (PC9 cells; 100 (μM)): 61.89 and 69.88 and 70.31 and 63.67; IC50 (PC9 cells; Homo sapiens, PC-9, wild-type PC9, MTT, 24-hour treatment, 0–100 μM, read-out: IC50, growth inhibition): 55.5 µM; MTT, PC9/GR, value relative to control (=100), single replicate (PC9/GR cells; 25 (μM)): 62.45 and 66.61 and 79.63 and 68.61; MTT, PC9/GR, value relative to control (=100), single replicate (PC9/GR cells; 50 (μM)): 61.78 and 67.43 and 60.72 and 69.73; MTT, PC9/GR, value relative to control (=100), single replicate (PC9/GR cells; 75 (μM)): 48.89 and 53.34 and 39.63 and 40.04; MTT, PC9/GR, value relative to control (=100), single replicate (PC9/GR cells; 100 (μM)): 37.64 and 39.62 and 40.69 and 41.33; IC50 (PC9/GR cells; Homo sapiens, gefitinib-resistant PC9/GR, MTT, 24-hour treatment, 0–100 μM, read-out: IC50, growth inhibition): 39 µM; selectivity towards cells with the drug-resistant phenotype (PC9/GR cells; PC9/GR versus PC9): did not demonstrate significant selectivity
11 | Cc1ccc(NC(=O)NCCc2cc(Br)c(O)c(Br)c2)cc1 [4n, 1-(3,5-dibromo-4-hydroxyphenethyl)-3-(p-tolyl)urea] | 38.7 ± 8.1 nM | –
12 | COCCOc1ccc(NC(=O)NCCc2cc(Br)c(O)c(Br)c2)cc1 [4o, 1-(3,5-dibromo-4-hydroxyphenethyl)-3-(4-(2-methoxyethoxy)phenyl)urea] | 11.3 ± 26.2 nM | –
13 | COc1c(Br)cc(CCNC(=O)Nc2ccc(OCCCN3CCOCC3)cc2)cc1Br [6g] | – | IC50 (p38α [2]): 11.7 ± 3 nM

Reference: article PMC12471852, “Design and Synthesis of Marine-Inspired Itampolin A Derivatives to Overcome Chemoresistance in NSCLC via Cholesterol Homeostasis Modulation” (Marine Drugs, 2025)
